Tested on: TNF-α
Assay: LPS-induced TNF-α assay in human whole blood
Type: cell-based
Details: LPS 1 μg/mL, 24 hours at 37° C., TNF-α by ELISA in plasma
Method: Whole blood provides a protein and cell-rich milieu appropriate for the study of biochemical efficacy of anti-inflammatory compounds such as PDE4-selective inhibitors. […] Upon stimulation with LPS, activated monocytes express and secrete TNF-α up to 8 hours and plasma levels remain stable for 24 hours. Published studies have shown that inhibition of TNF-α by increasing intracellular cAMP via PDE4 inhibition and/or enhanced adenylyl cyclase activity Occurs at the transcriptional level. […] As there is little LTB4 produced during a 24 hour LPS stimulation of whole blood, an additional LPS stimulation followed by fMLP challenge of human whole blood is necessary for LTB4 synthesis by activated neutrophils. Thus, by using the same blood sample, it is possible to evaluate the potency of a compound on two surrogate markers of PDE4 activity in the whole blood by the following procedure.
Fresh blood was collected in heparinized tubes by venipuncture from healthy human volunteers (male and female). These subjects had no apparent inflammatory conditions and had not taken any NSAIDs for at least 4 days prior to blood collection. 500 μL aliquots of blood were pre-incubated with either 2 μL of vehicle (DMSO) or 2 μL of test compound at varying concentrations for 15 minutes at 37° C. This was followed by the addition of either 10 μL vehicle (PBS) as blanks or 10 μL LPS (1 μg/mL final concentration, #L-2630 (Sigma Chemical Co., St. Louis, Mo.) from E. coli, serotype 0111:B4; diluted in 0.1% w/v BSA (in PBS)). After 24 hours of incubation at 37° C., another 10 μL of PBS (blank) or 10 μL of LPS (1 μg/mL final concentration) was added to blood and incubated for 30 minutes at 37° C. The blood was then challenged with either 10 μL of PBS (blank) or 10 μL of fMLP (1 μM final concentration, #F-3506 (Sigma); diluted in 1% w/v BSA (in PBS)) for 15 minutes at 37° C. The blood samples were centrifuged at 1500×g for 10 minutes at 4° C. to obtain plasma. A 50 μL aliquot of plasma was mixed with 200 μL methanol for protein precipitation and centrifuged as above. The supernatant was assayed for LTB4 using an enzyme immunoassay kit (#520111 from Cayman Chemical Co., Ann Arbor, Mich.) according to the manufacturer's procedure. TNF-α was assayed in diluted plasma (in PBS) using an ELISA kit (Cistron Biotechnology, Pine Brook, N.J.) according to manufacturer's procedure.

SMILES	IC50 [nM]
O=C(NCC1CC1)c1cn(-c2cccc(-c3ccc(C4CC4C(=O)O)cc3)c2)c2ncccc2c1=O (stereo not shown) [Example 26, 2-{3′-[3-{[(Cyclopropylmethyl)amino]carbonyl}-4-oxo-1,8-naphthyridin-1(4H)-yl]-1,1′-biphenyl-4-yl}cyclopropanecarboxylic acid]	160
O=C(NC1CC1)c1cn(-c2cccc(-c3ccc(CC4(C(=O)O)CCC4)cc3)c2)c2ncccc2c1=O [Example 30, 1-({3′-[3-[(cyclopropylamino)carbonyl]-4-oxo-1,8-naphthyridin-1(4H)-yl]biphenyl-4-yl}methyl)cyclobutanecarboxylic acid]	1800
O=C(NC1CC1)c1cn(-c2cccc(-c3ccc([C@@H]4C[C@H]4C(=O)O)cc3)c2)c2ncccc2c1=O (relative stereo) [Example 1, 2-(trans)-{3′-[3-[(Cyclopropylamino)carbonyl]-4-oxo-1,8-naphthyridin-1(4H)-yl]-1,1′-biphenyl-4-yl}cyclopropanecarboxylic acid]	300
O=C(NCC(F)(F)F)c1cn(-c2cccc(-c3ccc([C@@H]4C[C@H]4C(=O)O)cc3)c2)c2ncccc2c1=O (single isomer, unassigned; (+)) [24-(+)-isomer, (+)-(trans)-2-{3′-[4-oxo-3-{[(2,2,2-trifluoroethyl)amino]carbonyl}-1,8-naphthyridin-1(4H)-yl]biphenyl-4-yl}cyclopropanecarboxylic acid]	160
O=C(NC1CC1)c1cn(-c2cccc(-c3ccc([C@H]4C[C@H]4C(=O)O)cc3)c2)c2ncccc2c1=O (single isomer, unassigned; isomer 2) [8-(−)-isomer, 2-(cis)-{3′-[3-[(Cyclopropylamino)carbonyl]-4-oxo-1,8-naphthyridin-1(4H)-yl]-1,1′-biphenyl-4-yl}cyclopropanecarboxylic acid]	160
O=C(NC1CC1)c1cn(-c2cccc(-c3ccc(C4CC4C(=O)O)c(F)c3)c2)c2ncccc2c1=O (single isomer, unassigned; (-)) [12-(−)-isomer, (−)-(trans)-2-{3′-[3-[(cyclopropylamino)carbonyl]-4-oxo-1,8-naphthyridin-1(4H)-yl]-3-fluoro-1,1′-biphenyl-4-yl}cyclopropanecarboxylic acid]	500

The next molecules have a lower IC50 than those just listed; values first:

IC50 [nM]	SMILES
100	O=C(NCC(F)(F)F)c1cn(-c2cccc(-c3ccc(C4CC4C(=O)O)c(F)c3)c2)c2ncccc2c1=O (single isomer, unassigned; (+)) [Example 29, (+)-(trans)-2-{3-fluoro-3′-[4-oxo-3-{[(2,2,2-trifluoroethyl)amino]carbonyl}-1,8-naphthyridin-1(4H)-yl]biphenyl-4-yl}cyclopropanecarboxylic acid]
100	O=C(NC1CC1)c1cn(-c2cccc(-c3cccc(C4CC4C(=O)O)c3)c2)c2ncccc2c1=O (stereo not shown) [Example 2, 2-{3′-[3-[(Cyclopropylamino)carbonyl]-4-oxo-1,8-naphthyridin-1(4H)-yl]-1,1′-biphenyl-3-yl}cyclopropanecarboxylic acid]
90	O=C(NC1CC1)c1cn(-c2cccc(-c3ccc(C4CC4C(=O)O)c(Cl)c3)c2)c2ncccc2c1=O (stereo not shown) [Example 17, 2-{3-Chloro-3′-[3-[(cyclopropylamino)carbonyl]-4-oxo-1,8-naphthyridin-1(4H)-yl]1,1′-biphenyl-4-yl}cyclopropanecarboxylic acid]
75	CC(C)(CC(=O)O)c1ccc(-c2cccc(-n3cc(C(=O)NC4CC4)c(=O)c4cccnc43)c2)cc1 [Example 5, 3-{3′-[3-[(Cyclopropylamino)carbonyl]-4-oxo-1,8-naphthyridin-1(4H)-yl]-1,1′-biphenyl-4-yl}-3-methylbutanoic acid]

Reference: patent publication US7238706B2, “4-oxo-1-(3-substituted phenyl-1,4-dihydro-1,8-naphthyridine-3-carboxamide phosphodiesterase-4 inhibitors” (Merck Frosst Canada, Ltd., priority 2002, dated 2007)
